The values that follow come from PubChem BioAssay AID449750 (Broad Institute, 2010).

Usually AC50 stands for the concentration giving half of the maximal activity seen.

Activity calls are given as the source filed them. How the calls were made is not given here.

The nature of this test: non-covalent RecA intein splicing inhibitors, dose response, biochemical, cell-free, fluorescence, secondary screen (AID 449750).
Take `CCOc1cc(/C=C(\C#N)C(=O)Nc2cccc(C(=O)O)c2)cc(Br)c1OC(=O)c1ccc(OC)cc1`: the AC50 was 8.34 µM.

Consider `CCN(C(=O)CSc1ncccc1C(=O)Oc1cccc([N+](=O)[O-])c1)c1cccc(C)c1`, for which the AC50 was > 38 µM (inactive).

As for `CCCc1[nH]nc2c1C(c1ccc(OC(=O)c3ccco3)cc1)C(C#N)=C(N)O2` (stereo not drawn), the AC50 is > 38 µM (inactive).

With `COc1cccc(N(C(=O)CCl)C(C(=O)NCCc2ccccc2)c2cccs2)c1` (stereo not drawn), the AC50 was 1.29 µM.

For `Cc1[nH][nH]c(=O)c1C(c1ccc(N(C)C)c(Br)c1)c1c(C)[nH][nH]c1=O`, the AC50 is 38.7 µM.

Turning to `Cc1cccn2c(CNCC3(c4ccccc4)CCCC3)c(C(=O)N3CCOCC3)nc12`, the AC50 was > 38 µM (inactive).

Take `O=C1C=C(Nc2ccccc2)c2ccccc2C1=O`: the AC50 was 5.18 µM.

In the case of `Cc1nnc(Sc2cc(NCCO)c([N+](=O)[O-])c3nonc23)s1`, the AC50 was > 38 µM (inactive).

Take `CCN1C(=O)c2c(C)nc3ccccc3c2C1=O`: the AC50 is > 38 µM (inactive).

Turning to `Cc1cc(OC(=O)c2ccccc2)n(CCC#N)n1`, the AC50 is 17.7 µM.

Take `N#CCCn1[nH]c(-c2ccccc2)cc1=O`: the AC50 was 8.16 µM.

For `C#CCOc1ccc(/C=C2/C(=O)N(c3cccc(C(=O)O)c3)N=C2C)cc1OC`, the AC50 was 2.79 µM.

For `CC(OC(=O)c1cc(O)c2ccccc2c1O)C(=O)Nc1ccc(C(N)=O)cc1` (stereo not drawn), the AC50 was 10.1 µM.

`COc1cc(/C=C(\C#N)C(=O)c2c[nH]c3ccccc23)cc(OC)c1O`: the AC50 is > 38 µM (inactive).

For `O=C(CCl)N(c1ccc(Cl)cc1)c1c[nH]c2ccccc12`, the AC50 was 0.746 µM.

`CSCCC1C(C#N)=C(N)Oc2n[nH]c(-c3cccs3)c21` (stereo not drawn): the AC50 was 11.4 µM.

With `CC1=C(C(=O)OC(C)C)C2(O)C(=O)c3ccccc3C2(O)N1` (stereo not drawn), the AC50 was 9.7 µM.

Consider `CCOc1cc(C(c2c(C)[nH][nH]c2=O)c2c(C)[nH][nH]c2=O)ccc1O`, for which the AC50 was 5.54 µM.

For the molecule `COc1cccc(/C=C/C(=O)c2ccc(NS(=O)(=O)c3ccc(C)cc3)cc2)c1`, the AC50 was 6.79 µM.

For `O=C1CCCC2=C1C(c1ccc3c(c1)OCO3)c1c([nH]n(-c3ccccc3)c1=O)N2` (stereo not drawn), the AC50 is 6.7 µM.

For `COc1ccccc1NC1=C(Cl)C(=O)OC1OC(=O)c1ccco1` (stereo not drawn), the AC50 is > 38 µM (inactive).

`CCC(CC)C(=O)NCc1ccc2c(c1)cc(C)n2C`: the AC50 was > 38 µM (inactive).

Regarding `Clc1ccc2nnnc(-c3ccccc3)c2c1`, the AC50 was 9.57 µM.

As to `CC1(S(=O)(=O)O)CC(=O)c2ccccc2C1=O` (stereo not drawn), the AC50 is 6.36 µM.

For the molecule `O=[N+]([O-])C(/C=C(\Cl)[N+](=O)[O-])=C1N(Cc2ccc(Cl)nc2)CCN1Cc1ccc(Cl)nc1`, the AC50 was > 38 µM (inactive).

Turning to `O=c1oc2cc(Oc3c([N+](=O)[O-])cc(C(F)(F)F)cc3[N+](=O)[O-])ccc2c2c1CCCC2`, the AC50 was > 38 µM (inactive).

For `O=[N+]([O-])c1c(NCCO)cc(Sc2nc3ccccc3s2)c2nonc12`, the AC50 was 32.3 µM.

For `Cn1c(SCC(=O)NCc2ccc(F)cc2)nc2ccccc21`, the AC50 was > 38 µM (inactive).

As to `Cc1ccc(C)c(S(=O)(=O)Nc2ccc(O)c3ccccc23)c1`, the AC50 was 0.598 µM.

Regarding `CN1CCN(C(c2ccc(C(F)(F)F)cc2)c2cc(Cl)c3cccnc3c2O)CC1` (stereo not drawn), the AC50 is > 38 µM (inactive).

As for `COC(=O)c1cc([N+](=O)[O-])c(-n2ccnc2)c([N+](=O)[O-])c1`, the AC50 is > 38 µM (inactive).

Regarding `O=C(Nc1ccccc1N(C(=O)c1ccco1)S(=O)(=O)c1cccs1)c1ccco1`, the AC50 is 23.1 µM.

Consider `CC(=O)Oc1ccc(/C=C2/C(=O)N(c3ccccc3)N=C2C)cc1`, for which the AC50 was 4.09 µM.

Consider `CCOc1cc(C2C(C#N)=C(N)Oc3n[nH]c(CC)c32)ccc1OCCN1CCOCC1` (stereo not drawn), for which the AC50 is > 38 µM (inactive).

With `C=CCN1C(=O)NC(c2ccc(OC)cc2)(C(F)(F)F)S/C1=C(\C#N)c1nnc(N2CCOCC2)n1-c1ccccc1` (stereo not drawn), the AC50 is 32.4 µM.

As to `CC1(C)CC(CCNC(=O)CCl)(c2ccccc2)CCO1` (stereo not drawn), the AC50 was 21.3 µM.

For the molecule `NNc1n[nH]c(=S)n1N`, the AC50 is 32.3 µM.

`CCCCCCCOC(=O)c1ccc(OC(=O)c2cccnc2)cc1`: the AC50 was 4.17 µM.

With `Cc1cc(Sc2nnc(/N=C/N(C)C)s2)c2ccccc2n1`, the AC50 is > 38 µM (inactive).

With `COC(=O)N/N=C\c1ccc(OC(=O)c2ccco2)cc1`, the AC50 was > 38 µM (inactive).

For the molecule `O=C(Nc1ccc(F)cc1)c1nn(-c2ccccc2)c(=O)cc1Cl`, the AC50 was 22.1 µM.

For `N#CC1=C(N)Oc2n[nH]c(-c3ccccc3)c2C1c1cccc(OC(=O)N2CCOCC2)c1` (stereo not drawn), the AC50 was 32.7 µM.

Turning to `CCCCOC(=O)CNc1nnc(SCC(=O)OCC)[nH]c1=O`, the AC50 is > 38 µM (inactive).

Take `O=c1cc(-c2ccccc2)[nH][nH]1`: the AC50 was 12.8 µM.

For the molecule `O=C(c1c[nH]c(C(=O)C(Cl)(Cl)Cl)c1)c1ccc(F)cc1Cl`, the AC50 is 30.1 µM.

Take `O=C(CCl)Nc1ccc(N2CCCCCC2)cc1`: the AC50 was 6.59 µM.

Regarding `O=c1[nH]c(/C=C/c2cccnc2)c([N+](=O)[O-])c(=O)[nH]1`, the AC50 is > 38 µM (inactive).

`Cc1nn(C(=O)c2cccnc2)c(C)c1Sc1ccc(Br)cc1`: the AC50 is 24.5 µM.

As to `O=C(O)c1ccc(NC2=C(Cl)C(=O)c3ccccc3C2=O)cc1`, the AC50 is 3.91 µM.

Turning to `COc1ccc(/C=C2/C(=O)N(c3ccccc3)N=C2C)cc1Br`, the AC50 is 5.66 µM.

For `[O-][N+]1=c2ccc(Nc3ccccc3)cc2=NC12CCCCC2`, the AC50 is 16.7 µM.

For the molecule `O=C1C(C2=C(O)c3ccccc3C2=O)=Nc2ccccc21`, the AC50 is 2.98 µM.

Turning to `CC(=O)N(C)Cc1ccc(C(=O)CCl)cc1`, the AC50 is > 38 µM (inactive).

As for `CCCCCCN(C(=O)CCl)c1ccccc1`, the AC50 was 3.5 µM.

Consider `Cc1nn(Cc2ccccc2)c2c1C(c1cccnc1)C(C#N)=C(N)O2` (stereo not drawn), for which the AC50 was > 38 µM (inactive).

For the molecule `O=C(CCCN1C(=O)/C(=C\c2ccccc2)SC1=S)Nc1ccc(O)cc1C(=O)O`, the AC50 was 32.7 µM.

In the case of `CC(=O)N(C1CC(C)C(C#N)(C#N)C1(C#N)C#N)N(C)C` (stereo not drawn), the AC50 was > 38 µM (inactive).

As for `CCOC(=O)C(C#N)C(c1cccnc1)c1c(C)[nH][nH]c1=O` (stereo not drawn), the AC50 is > 38 µM (inactive).

As to `Cc1ccc(C2C(C#N)=C(N)Oc3n[nH]c(-c4ccccc4)c32)o1` (stereo not drawn), the AC50 is > 38 µM (inactive).

Take `CCOc1cc(C(c2c(C)[nH][nH]c2=O)c2c(C)[nH][nH]c2=O)cc(Cl)c1O`: the AC50 is > 38 µM (inactive).

`O=C(CS(=O)c1ccc(C(F)(F)F)cc1[N+](=O)[O-])Oc1ccccc1` (stereo not drawn): the AC50 is > 38 µM (inactive).

With `Cn1nc([N+](=O)[O-])c(C(C#N)c2ccccn2)c(Cl)c1=O` (stereo not drawn), the AC50 is > 38 µM (inactive).

Regarding `O=c1[nH]c2ccccc2n2c(-c3ccccc3)nnc12`, the AC50 was 22.5 µM.

For the molecule `COc1ccc(C2=NN(c3ccccc3)C(=O)/C2=C\c2ccc(O)c(OC)c2)cc1`, the AC50 was 3.62 µM.

In the case of `O=C(Nc1n[nH]c(C(F)(F)F)n1)c1cccs1`, the AC50 was > 38 µM (inactive).

As for `CCOC(=O)C(CC)Sc1ncnc2c1nnn2-c1ccc(F)cc1` (stereo not drawn), the AC50 is > 38 µM (inactive).

`COc1cc2c(cc1OC)-c1c(OC)c(OC)cc3c1C(C2)N(C)CC3` (stereo not drawn): the AC50 is 10.3 µM.

For the molecule `CC(=O)Nc1ccc(S(=O)(=O)/N=C2\C(=O)c3ccccc3C([O-])=C2n2cc[n+](-c3ccccn3)c2)cc1`, the AC50 was 5.71 µM.

Regarding `COC(=O)c1ccccc1-c1ccc(C(c2c(C)[nH][nH]c2=O)c2c(C)[nH][nH]c2=O)o1`, the half-maximal activity concentration (AC50) was 3.62 µM.

`COc1ccc2nc(SCC(=O)NN)cc(C)c2c1`: the AC50 is > 38 µM (inactive).

As for `O=C(CCl)c1cc2c3c(c1)CC(=O)N3CCC2`, the AC50 is > 38 µM (inactive).

On to `CC(=O)Nc1ccc(OC(=O)c2ccco2)cc1`, for which the AC50 was > 38 µM (inactive).

Turning to `O=C1/C(=N\S(=O)(=O)c2cccs2)C([n+]2ccccc2)=C([O-])c2ccccc21`, the AC50 was 7.78 µM.

`COC(=O)c1cc(NC(=O)Nc2ccccc2OC)cc(C(=O)OC)c1`: the AC50 is > 38 µM (inactive).

Turning to `CSc1nnc(NC(=O)c2nc(S(=O)(=O)Cc3ccccc3F)ncc2Cl)s1`, the AC50 was > 38 µM (inactive).

Consider `Nc1c(-c2ccccc2)c(CSc2nc3ccccc3[nH]2)nn1-c1cccc(Cl)c1`, for which the AC50 is > 38 µM (inactive).

In the case of `O=C1CC(CSc2ccc(Cl)cc2)=NN1`, the AC50 was 25 µM.

In the case of `CCOC(=O)C1(CCOc2ccccc2)CCN(Cc2ccc(O)c(Cl)c2)CC1`, the AC50 is > 38 µM (inactive).

With `O=C(O)C1Nc2c(O)cc(Cl)c([N+](=O)[O-])c2C2C=CCC12` (stereo not drawn), the AC50 is 10.9 µM.

For `O=C(c1c[nH]c(C(=O)C(Cl)(Cl)Cl)c1)c1ccccc1Br`, the AC50 was 24.8 µM.

In the case of `COc1ccc(Nc2cnn(-c3nc4ccccc4s3)c(=O)c2Cl)cc1`, the AC50 was > 38 µM (inactive).

Consider `O=C(Oc1ccc(N(C(=O)c2ccncc2)S(=O)(=O)c2ccc(Cl)cc2)cc1)c1ccncc1`, for which the AC50 was > 38 µM (inactive).

Take `O=C(CCl)Nc1ccc(N=Nc2ccccc2)cc1`: the AC50 was 4.64 µM.

Consider `COc1cc(/C=C2/C(=O)N(c3ccc(Br)cc3)N=C2C)cc(OC)c1OC`, for which the AC50 is 7.07 µM.

Turning to `N#Cc1ncc(-c2ccc3c(c2)OCCOCCOCCOCCO3)nc1C#N`, the AC50 was > 38 µM (inactive).

On to `CCOC1(OCC)C(c2ccc(Cl)cc2)C(C#N)(C#N)C1(OCC)OCC` (stereo not drawn), for which the AC50 is > 38 µM (inactive).

`COc1ccc(N(C(=O)c2ccco2)S(=O)(=O)c2cccs2)cc1`: the AC50 is > 38 µM (inactive).

As for `COc1cc(/C=C2\C(=O)N(CCC#N)N=C2C)ccc1OCC(=O)Nc1ccccc1`, the AC50 is 8.37 µM.

On to `O=C1C(Cl)=C(Nc2ccc3cn[nH]c3c2)C(=O)c2ccccc21`, for which the AC50 was 3.75 µM.

For `Cc1ccc(C(=O)NC2(O)C(=O)c3ccccc3C2=O)cc1C`, the AC50 was 6.09 µM.

Consider `COc1cc2c(cc1OC)C(c1cc(Br)ccc1F)N(C(=O)CCl)CC2` (stereo not drawn), for which the AC50 was 2.43 µM.

As for `O=C(CCl)Nc1c(C(=O)Nc2ccc3c(c2)OCCO3)oc2ccccc12`, the concentration at half-maximal activity (AC50) was 4.49 µM.

For `COc1ccc(NC(=O)Cn2ncc(Cl)c(Cl)c2=O)cc1S(=O)(=O)N1CCOCC1`, the AC50 was > 38 µM (inactive).
